We go through 3 compounds from patent publication US20260001910A1, “PEPTIDES AND USES THEREOF” (PreveCeutical Medical Inc., priority 2021, published 2026).

For one experiment, the target named is T1, recombinant MMP-2 (Homo sapiens, UniProt P08253).
T1 construct: purchased ab139446
As to the kind of experiment: MMP-2 Inhibitor Screening Assay Kit (colorimetric). The experiment is classed as biochemical. As to conditions: lower % = higher inhibitory activity. The procedure:
MMP-2 is an important target for inhibitor screening due to its involvement in cancer growth, angiogenesis, and metastasis. The MMP-2 screening assay was carried out with a commercially available MMP-2 Inhibitor Screening Assay Kit (Colorimetric, Catalog: ab139446) based on the manufacturers protocol. This assay is based on quantification of recombinant MMP-2 activity using a colorimetric assay (MMP-2 degrades a chromogenic substrate). The assay provides NNGH (N-isobutyl-N-(4-methoxyphenylsulfonyl) glycyl hydroxamic acid), a small molecule inhibitor, as a positive control (NNGH). […] Each determination was run in duplicate.
Briefly, MMP Substrate and MMP Inhibitor were warmed to room temperature to thaw DMSO. MMP Inhibitor (NNGH), MMP-2 substrate and MMP-2 enzyme were diluted with assay buffer to required concentration. 20 μL of MMP-2 enzyme and MMP-2 inhibitor (peptides, Chlorotoxin and NNGH) was added, then 50 μL of assay buffer was added and the reaction mixture incubated at 37° C. for 1 h. After incubation, 10 μL of MMP Substrate was added to start reaction. The reactions were continuously read at 412 nm in a microplate reader. Data was recorded at 1 min. time intervals for 10 to 20 min. The data as was plotted as optical density (OD) versus time for each sample. The reaction velocity (V) was obtained in OD/min: determine the slope of a line fit to the linear portion of the data plot using an appropriate routine. Then using the equation above the inhibitor % activity remaining was calculated. The control was without inhibitor.

For experiment [1], the system named is GBM cells (U251, U87 and 081024 cells). As to the kind of experiment: Binding/internalization of biotinylated peptide, confocal fluorescence microscopy. In kind it is cell-based, human. The conditions noted are these: 0.5 mM labelled peptide. As to the method:
FIG. 1 provides fluorescence staining of biotinylated peptide SEQ ID NO. 1 after 6 hours cell exposure (U251 cells and U87 cells) or 5 min cell exposure (081024 oncospheres). Upper right-hand panel: U251 cells, middle right-hand panel, U87 cells, lower right-hand panel, 081024 oncospheres. No peptide negative control (left side of each panel). […] Nuclei appear blue due to DAPI staining. Images were captured using a 100X objective and a Olympus FV3000 confocal microscope
To document binding and/or internalization of the peptides to the cells, biotinylated derivatives of the peptides were synthesised to allow detection by Cy3-conjugated avidin staining using confocal fluorescence microscopy.
U87 and U251 cells were seeded on 8-chamber polystyrene vessel tissue culture-treated glass slides (Falcon). After 24h, cells were incubated with biotinylated peptide (0.5 mM) containing serum free media for 5 min and 6 h. […] Cells were then rinsed and mounted on microscopic slides with DAPI-containing mounting medium for confocal fluorescence imaging analysis.
The ability of SEQ ID NO. 41 to bind and/or enter GBM cells was evaluated. In a first set of experiments, adherent GBM cells and non-adherent GBM cells were exposed to 0.5 mM labelled peptide for 6 h, processed and analysed by confocal immunofluorescence microscopy. […]

Another experiment relates to U87 cells. The conditions noted are these: U87, 1 μM, 24h.
The next experiment concerns U251 cells. As to conditions: U251, 1 μM, 24h.
Another experiment concerns 081024 oncospheres. The conditions noted are these: 081024, 1 μM, 24h.

T1 sequence (P08253 110-446 limits assumed): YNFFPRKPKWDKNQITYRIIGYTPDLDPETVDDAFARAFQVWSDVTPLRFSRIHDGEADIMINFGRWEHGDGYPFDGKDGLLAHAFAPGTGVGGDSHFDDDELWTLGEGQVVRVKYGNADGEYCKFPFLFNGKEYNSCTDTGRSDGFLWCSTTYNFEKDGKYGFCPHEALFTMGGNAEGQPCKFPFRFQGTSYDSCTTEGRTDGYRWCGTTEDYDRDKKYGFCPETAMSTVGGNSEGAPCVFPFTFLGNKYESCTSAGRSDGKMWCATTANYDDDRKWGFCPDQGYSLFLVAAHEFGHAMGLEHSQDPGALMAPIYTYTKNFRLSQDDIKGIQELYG
Experimental for U251 cells: (§1) This assay, described in more detail below, is an in vitro surrogate for measurement of the in vivo invasion by tumour cells of their environment.
(§2) The cell invasion assay employs a simplified Boyden chamber-like design that consists of two chambers separated by a filter (an 8 μm polycarbonate (PC) membrane) coated with basement membrane or different extracellular matrix components. The cell suspension is placed in the top chamber and incubated in the presence of test media containing specific chemo-attractants in the bottom chamber. Cells migrate from the top chamber to the bottom of the filter by degrading the coating over the filter pores. Detection of cell invasion is quantified using Calcein AM. Cell dissociation/Calcein AM solution is placed in the bottom chamber to dissociate the migrating cells from the filter. Calcein AM is internalized by the cells, and intracellular-esterases cleave the aceto-methylester (AM) moiety.
(§3) The filter was coated with PathClear® growth factor reduced BME.
(§4) Cell invasion was determined using CultureCoat® 96 Well Medium BME Cell Invasion assay. Briefly, the cells were pre-starved 24h before harvest. Then seeding 25,000 per well of cell in the upper chamber with serum free medium together different concentration of peptide. […] After 24h incubation, the invading cells were measured by Calcein AM and calculated based on standard curve.
Experimental for U87 cells: as §1, §2, §3, §4

Regarding `COc1ccc(S(=O)(=O)N(CC(=O)NO)CC(C)C)cc1` [NNGH, N-isobutyl-N-(4-methoxyphenylsulfonyl) glycyl hydroxamic acid, reference compound], the “% inhibition (MMP-2 inhibitor screening)” value at recombinant MMP-2 (1.3 μM) came out at 2.29%.

Regarding “Biotin-tyr-gly-gly-phe-leu-arg-arg [SEQ ID NO. 41]”, the “binding/entry into GBM cells, Cy3 staining” value was “already internalised” in experiment [1] (5 minutes exposure, U251, U87 and 081024 cells); “bright intracellular fluorescence” in experiment [1] (6 h exposure).

For Chlorotoxin, the “% inhibition (MMP-2 inhibitor screening)” value at recombinant MMP-2 (1 μM) amounted to 67.94%. The results for the “Invasion Inhibition Index (%)” value in the experiment with U87 cells, with U251 cells and in the experiment with 081024 oncospheres were 39.5%, 28.50% and 45.0%, respectively.
